Laboratory results reported in patent publication US9175299B2, “Mutation involved in increased tolerance to imidazolinone herbicides in plants” (BASF AGROCHEMICAL PRODUCTS, B.V., priority 2004, dated 2015).

Experiments:
[1] = system: M3 Shiloh plants; assay: Tolerance rating of M3 progeny field plots sprayed with imazamox at the three-leaf stage; type: in vivo, Triticum aestivum
Experimental: Samples of 1,500 Shiloh variety seeds were each placed in a 1,000 ml beaker and covered with deionized water to at least 1 inch above the seed level. The beakers were then placed in a refrigerator at 4° C. for 15-20 hours. The seed samples were removed from the refrigerator and brought up to room temperature over an approximately 3 hour period by placing the beaker at room temperature. In some cases, the warming process was accelerated by adding deionized water to the beakers.
The deionized water was drained off the seeds, and the beaker was filled with a sodium azide solution to at least 1 inch above the seed level. The sodium azide solution was prepared by adding 27.218 g KH2PO4 to 1,500 ml deionized water, bringing the solution to pH 3 with concentrated H3PO4, and bringing the final solution to 2 L volume with deionized water. Just prior to use, 0.2604 g NaN3 was added, and the solution was kept in the dark. After addition of the sodium azide solution to the seeds, the beakers were incubated in a dark area at room temperature for 2 hours, with occasional stirring.
The sodium azide treatment solution was decanted, and the seed samples were rinsed twice with deionized water. Then the seed samples were covered with deionized water to at least 1 inch above seed level and soaked at room temperature for 1 hour, with occasional stirring. The deionized water was decanted, and the seeds were spread evenly on paper towels to dry. The seeds were planted in the field near Berthoud, Colo. in six 5 feet by 40 feet plots. Approximately 15 pounds of M2 seed were harvested, and approximately 466,000 seeds were planted near Platteville, Colo. The fields were sprayed with 1× (40 g ai ha^−1 (imazamox)) or 2× (80 g ai ha^−1 (imazamox)).
Plants tolerant to the herbicide were identified and transplanted into 1 gallon pots, and put into vernalization for 4 weeks at 45° F. Fourteen single plant selections were made out of the 2× rate area. The tolerant M2 plants were taken out of vernalization, grown out in a Berthoud, Colo. greenhouse, and M3 plants were planted in approximately 4 feet by 5 feet plots near Berthoud, Colo. The plots were sprayed with 80 g ai ha^−1 (imazamox) when the plants were at the three-leaf stage, and the results of the fourteen progenies were rated as shown in Table 1.

[2] = system: Shiloh-08; assay: Greenhouse screen of Shiloh-08 seedlings with imazamox at the three-leaf stage; type: in vivo, Triticum aestivum; conditions: twelve seeds, 40 g ai ha^−1 imazamox
[3] = system: iShiloh-8/iGDN F2's; assay: Test cross with a known Als1 line, F2 screen for herbicide tolerance (Table 2); type: in vivo, Triticum aestivum; conditions: test cross of Table 2; herbicide not named at this place
Experimental: (§1) Two test-cross experiments of Shiloh-8 with a known Als1 line were performed.

[4] = system: iShiloh-8/imi GDN F2's; assay: Test cross EXP 2001-2 Winter, F2 screen for herbicide tolerance (Table 3); type: in vivo, Triticum aestivum
Experimental: as §1

[5] = system: iShiloh-8; assay: Test cross EXP 2001-2 Winter, parent check (Table 3); type: in vivo, Triticum aestivum; conditions: number of plants of 8; herbicide not given
Experimental: as §1

[6] = system: Shiloh; assay: Test cross EXP 2001-2 Winter, wild type check (Table 3); type: in vivo, Triticum aestivum; conditions: number of plants of 7; herbicide not given
Experimental: as §1

[7] = system: imi GDN; assay: Test cross EXP 2001-2 Winter, known Als1 line check (Table 3); type: in vivo; conditions: number of plants of 2; herbicide not given
Experimental: as §1

[8] = system: iSHILOH-08; assay: Multiple field imidazolinone herbicide imazamox tolerance comparisons (Table 5); type: in vivo, Triticum aestivum
Experimental: (§2) Agronomic and comparative imidazolinone herbicide imazamox tolerance were then evaluated under field conditions. Table 4 summarizes the yield and agronomic evaluations comparing Shiloh-8 and wild type Shiloh plants. These trials were typical cereal evaluation experiments using incomplete randomized block three replication design. Plots were 1.54 m×4.62 m at harvest. Table 5 summarizes multiple field imidazolinone herbicide imazamox tolerance comparisons between Shiloh-8 and the standard tolerant control […]. These plots ranged from a single row 1 m to larger 1.54 m×4.62 m plots.

[9] = system: 9604 (iFEDEL); assay: Multiple field imidazolinone herbicide imazamox tolerance comparisons (Table 5), standard tolerant control; type: in vivo, Triticum aestivum; conditions: scale 1-no effect 10-dead
Experimental: as §2

[10] = number of plants of 167 F2's, herbicide not given

Q: What does the source list for `COCc1cnc(C2=NC(C)(C(C)C)C(=O)N2)c(C(=O)O)c1` (stereo not drawn) [imazamox]?
A: Tolerance of M3 Shiloh plants to 80 g ai ha^−1 (imazamox) ([1]; line Shiloh-01, 80 g ai ha^−1, three-leaf stage): Medium MR-MS; Tolerance of M3 Shiloh plants to 80 g ai ha^−1 (imazamox) ([1]; line Shiloh-03, 80 g ai ha^−1, three-leaf stage): Discard-Sensitive; Tolerance of M3 Shiloh plants to 80 g ai ha^−1 (imazamox) ([1]; line Shiloh-04, 80 g ai ha^−1, three-leaf stage): Discard-Sensitive; Tolerance of M3 Shiloh plants to 80 g ai ha^−1 (imazamox) ([1]; line Shiloh-05, 80 g ai ha^−1, three-leaf stage): Discard-Sensitive; Tolerance of M3 Shiloh plants to 80 g ai ha^−1 (imazamox) ([1]; line Shiloh-06, 80 g ai ha^−1, three-leaf stage): Discard-Sensitive; Tolerance of M3 Shiloh plants to 80 g ai ha^−1 (imazamox) ([1]; line Shiloh-07, 80 g ai ha^−1, three-leaf stage): Discard-Sensitive; Tolerance of M3 Shiloh plants to 80 g ai ha^−1 (imazamox) ([1]; line Shiloh-08, 80 g ai ha^−1, three-leaf stage): All Good MR-R; Tolerance of M3 Shiloh plants to 80 g ai ha^−1 (imazamox) ([1]; line Shiloh-09, 80 g ai ha^−1, three-leaf stage): Discard-Sensitive; Tolerance of M3 Shiloh plants to 80 g ai ha^−1 (imazamox) ([1]; line Shiloh-10, 80 g ai ha^−1, three-leaf stage): Discard-Sensitive; Tolerance of M3 Shiloh plants to 80 g ai ha^−1 (imazamox) ([1]; line Shiloh-11, 80 g ai ha^−1, three-leaf stage): Discard-Sensitive; Tolerance of M3 Shiloh plants to 80 g ai ha^−1 (imazamox) ([1]; line Shiloh-12, 80 g ai ha^−1, three-leaf stage): Discard-Sensitive; Tolerance of M3 Shiloh plants to 80 g ai ha^−1 (imazamox) ([1]; line Shiloh-13, 80 g ai ha^−1, three-leaf stage): Discard-Sensitive; Tolerance of M3 Shiloh plants to 80 g ai ha^−1 (imazamox) ([1]; line Shiloh-14, 80 g ai ha^−1, three-leaf stage): Medium MR-MS; Reaction of Shiloh-08 plants to imazamox screen [2]: confirmed a heritable homozygous reaction; Genetic segregation for tolerance in the F2 population [3]: no genetic segregation for tolerance; DGP+ Brown sheath [4, 10]: 0; Dead or Dying growth point [4, 10]: 0; Strong Survivors [4, 10]: 140; Winkled or stunted [4, 10]: 27; Genetic segregation for tolerance in the F2 population ([4]; test cross of Table 3, herbicide not named at this place): no genetic segregation for tolerance; DGP+ Brown sheath [5]: 0; Dead or Dying growth point [5]: 0; Strong Survivors [5]: 7; Winkled or stunted [5]: 1; DGP+ Brown sheath [6]: 7; Dead or Dying growth point [6]: 0; Strong Survivors [6]: 0; Winkled or stunted [6]: 0; DGP+ Brown sheath [7]: 0; Dead or Dying growth point [7]: 0; Strong Survivors [7]: 1; Winkled or stunted [7]: 1; ′99-′00 Rate D&O Plateville, CO (early) 4 oz/ac ([8]; 4 oz/ac, early, scale 1-no effect 10-dead): 2; ′99-′00 Rate D&O Quinter, KS (early) 4 oz/ac ([8]; 4 oz/ac, early, scale 1-no effect 10-dead, spring application, temperature dropped 19° F. the night following application): 2; ′99-′00 Rate D&O Quinter, KS (late) 4 oz/ac ([8]; 4 oz/ac, late, scale 1-no effect 10-dead, spring application, temperature dropped 19° F. the night following application): 5; ′99-′00 Rate D&O Plateville, CO (early) 8 oz/ac ([8]; 8 oz/ac, early, scale 1-no effect 10-dead): 3; ′99-′00 Rate D&O Quinter, KS (early) 8 oz/ac ([8]; 8 oz/ac, early, scale 1-no effect 10-dead, spring application, temperature dropped 19° F. the night following application): 3; ′99-′00 Rate D&O Quinter, KS (late) 8 oz/ac ([8]; 8 oz/ac, late, scale 1-no effect 10-dead, spring application, temperature dropped 19° F. the night following application): 6; Sum ′99 M3 Progeny Rating (8 oz/ac) Field ([8]; 8 oz/ac, field): R-MR; ′99-′00 Rate D&O Plateville, CO (early) 4 oz/ac ([9]; 4 oz/ac, early): 1; ′99-′00 Rate D&O Quinter, KS (early) 4 oz/ac ([9]; 4 oz/ac, early, spring application, temperature dropped 19° F. the night following application): 1; ′99-′00 Rate D&O Quinter, KS (late) 4 oz/ac ([9]; 4 oz/ac, late, spring application, temperature dropped 19° F. the night following application): 8; ′99-′00 Rate D&O Plateville, CO (early) 8 oz/ac ([9]; 8 oz/ac, early): 2; ′99-′00 Rate D&O Quinter, KS (early) 8 oz/ac ([9]; 8 oz/ac, early, spring application, temperature dropped 19° F. the night following application): 2; ′99-′00 Rate D&O Quinter, KS (late) 8 oz/ac ([9]; 8 oz/ac, late, spring application, temperature dropped 19° F. the night following application): 8
